Experimental data: US3955959A, “Herbicide for use in transplanted rice” (priority 1974, dated 1976)
“And” between values parts separate entries of the source, which are not always exact repeats. Identical values can stand only once.

Assays:
transplanted rice [1] = assay: Example 1 field test, rice injury; assay type: in vivo, rice (Watanabe variety)
Text: In the field test 48 day-old seedlings (Watanabe variety) were transplanted to plots 2.5 × 6 m. seeded with the weed seeds indicated in Table 1. At 5 and 10 DAT periods, the herbicides were applied to the plants (now at the 1.2 and 2.0 leaf stage, respectively, of grass weed) at the indicated rate in kilograms per hectare (kg/ha). The weed control and rice injury results for 3 replications are reported in percentages as of the indicated times of observation. The percentages given in the "Perennials" column are based on the weight of the weeds at 63 DAT, i.e., 42 gms/3.6 m^2 for the weedy check.

transplanted rice [2] = assay: Example 2 field test, rice yield; assay type: in vivo, rice (Tainan No. 5, japonica)
Method: (§1) In the tests described in the tables below, the herbicides were formulated and used in granular form in conventional manner. […] The commercial herbicide used was a granular product having 5% active ingredient.
(§2) In the field tests of the herbicide of this invention with transplanted rice, the rice seedlings were grown in conventional manner, by seeding the rice in a typical seedbed of sandy loam to clay soil of the country wherein the test was conducted. For laboratory and greenhouse work the seedlings were obtained by seeding rice in a mixture of soil, e.g., Ray silt loam, and peat in wood flats. For purposes of testing the herbicides on younger rice seedlings (infant or Dapog) the rice was usually allowed to grow for 6-15 days before lifting for transplanting. Older (ordinary) rice plants were usually grown for a period of about 2-3 weeks, or as much as about 7 weeks before lifting. Since the period of growth is dependent upon climatic conditions, a better measure of when to transplant the rice seedling is the leaf stage of growth; for infant or Dapog rice the seedling is lifted at the 1.5-2 leaf stage of growth, and for ordinary seedlings at the 2.5-5 leaf stage. The seedlings were then transplanted to the test plots for evaluation of the herbicide for injury against weed species present with the transplanted rice. The herbicides were then applied to the growth medium of the weeds and transplant rice, either preemergent or postemergent with respect to the weeds and postemergent with respect to the transplanted rice. Application times are designated in the tables as "DAT", meaning "days after transplant". Application rates given in the tables refer to the amount of active ingredient used.
Rice seedlings (ordinary) of Tainan No. 5 variety (japonica) were transplanted at 19 days of growth. Granular formulations of Herbicides A and B were applied at the 1 leaf stage of grass weed (4 DAT) and 2.5 leaf stage of grass weed (10 DAT). Observations were made at 63 DAT and results reported in Table 2 as an average of 3 replications.

[3] = test system: ordinary transplanted rice; assay: Example 4 field test, crop injury; settings: obs. 36 DAT
Method: as §1, §2
In this example comparative field tests were conducted with Herbicides A and B on ordinary transplanted rice at Munoz, Philippines.
Twenty-one (21) day-old ordinary wet bed seedlings of the Fortuna variety were transplanted to field plots and Herbicides A and B applied at 5 DAT and 14 DAT. The field plots were overseeded with barnyardgrass (E. crusgalli) at 2 kgs/ha. Treatments were replicated four times.

[4] = test system: weeds Ec, Ann. Cyp, Mv, Obw, Ea; assay: Example 5 field test, average weed control, JAAPR, Japan
Method: as §1, §2
The rice seedlings were grown to the 1.7 leaf stage for infant seedlings and to the 5.5 leaf stage for ordinary seedlings. Two days after puddling the soil in which the seedlings were to be transplanted, both infant and ordinary seedlings were transplanted into plots 8.5 m^2.
The weed symbol "Obw" represents "other broadleaf weeds" of unspecified identity. Results presented in Table 5 represent the average of 2 replications.

[5] = test system: pigweed, annual morning glory, smartweed, cocklebur, Italian ryegrass, crop rye, sorghum, quack grass and nutsedge; assay: Example 9 soil life bioassay, greenhouse; assay type: in vivo; settings: for Soil Longevity: 5 lbs/Ac (5.605 kg/ha), Ray silt loam
Method: In this example, additional tests were run to compare the relative soil life of Herbicides A and B under greenhouse conditions.
In the soil life tests, a standardized procedure involving a series of bioassay periods, or cycles, was used. In the procedure, an arbitrary, selected mixture of four grasses, four broadleaf weeds and a sedge were seeded into Ray silt loam soil previously prepared and treated with the herbicide under test and periodically watered by sub-irrigation. After a six-week bioassay period, (i.e., the first cycle), the plants were evaluated visually for herbicidal activity. That soil in which at least 75% of three or more grass and/or broadleaf species or of the sedge alone were controlled at the end of the cycle, was advanced to a second cycle, or six-week bioassay period. The second cycle involved the same procedure as the first cycle, except that additionally, the equivalent of 50 lbs/ac (56.05 Kgs/ha) of nitrogen was mixed into the cover layer of the soil which was reseeded with the mixture of plants mentioned earlier. The plants were evaluated for herbicidal activity at the end of this six-week period and, again, the soil in which at least 75% of the grasses or broadleaf species or of the sedge alone were controlled was advanced to a third cycle. The foregoing procedure was repeated until herbicidal activity fell below that required for initiation of a new cycle.
For purposes of the soil life tests, the following spectrum of plants were used as indicators: pigweed, annual morning glory, smartweed, cocklebur, Italian ryegrass, crop rye, sorghum, quack grass and nutsedge.

CCCCOCN(C(=O)CCl)c1c(CC)cccc1CC [Herbicide B, n-(butoxymethyl)-2',6'-diethyl-2-chloroacetanilide, reference compound]
% Rice Injury (transplanted rice [1]; 5 DAT, 1.0 kg/ha, obs. 21 DAT): 0%
% Rice Injury (transplanted rice [1]; 5 DAT, 1.0 kg/ha, obs. 42 DAT): 0%
% Rice Injury (transplanted rice [1]; 5 DAT, 1.5 kg/ha, obs. 21 DAT): 0%
% Rice Injury (transplanted rice [1]; 5 DAT, 1.5 kg/ha, obs. 42 DAT): 0%
% Rice Injury (transplanted rice [1]; 5 DAT, 3.0 kg/ha, obs. 21 DAT): 5%
% Rice Injury (transplanted rice [1]; 5 DAT, 3.0 kg/ha, obs. 42 DAT): 0%
% Rice Injury (transplanted rice [1]; 10 DAT, 1.0 kg/ha, obs. 21 DAT): 0%
% Rice Injury (transplanted rice [1]; 10 DAT, 1.0 kg/ha, obs. 42 DAT): 0%
% Rice Injury (transplanted rice [1]; 10 DAT, 1.5 kg/ha, obs. 21 DAT): 0%
% Rice Injury (transplanted rice [1]; 10 DAT, 1.5 kg/ha, obs. 42 DAT): 0%
% Rice Injury (transplanted rice [1]; 10 DAT, 3.0 kg/ha, obs. 21 DAT): 0%
% Rice Injury (transplanted rice [1]; 10 DAT, 3.0 kg/ha, obs. 42 DAT): 0%
Yield (% of H.W. Check) (transplanted rice [2]; 4 DAT, 1.0 kg/ha): 110%
Yield (% of H.W. Check) (transplanted rice [2]; 4 DAT, 1.5 kg/ha): 103%
Yield (% of H.W. Check) (transplanted rice [2]; 4 DAT, 3.0 kg/ha): 99%
Yield (% of H.W. Check) (transplanted rice [2]; 10 DAT, 1.0 kg/ha): 97%
Yield (% of H.W. Check) (transplanted rice [2]; 10 DAT, 1.5 kg/ha): 98%
Yield (% of H.W. Check) (transplanted rice [2]; 10 DAT, 3.0 kg/ha): 99%
Crop Injury (%) ([3]; 5 DAT, 1.0 kg/ha): 0%
Crop Injury (%) ([3]; 5 DAT, 1.5 kg/ha): 0%
Crop Injury (%) ([3]; 5 DAT, 3.0 kg/ha): 0%
Crop Injury (%) ([3]; 14 DAT, 1.0 kg/ha): 0%
Crop Injury (%) ([3]; 14 DAT, 1.5 kg/ha): 0%
Crop Injury (%) ([3]; 14 DAT, 3.0 kg/ha): 0%
% Weed Control, Avg. ([4]; 1.5 kg/ha, 7 DAT, infant seedlings): 93%
% Weed Control, Avg. ([4]; 1.5 kg/ha, 7 DAT, ordinary seedlings): 86%
Soil Longevity [5]: 20 Weeks

CCCCOCN(C(=O)CCl)c1c(C)cccc1C(C)(C)C [Herbicide A, n-(butoxymethyl)-6'-tert-butyl-2-chloro-o-acetotoluidide]
% Rice Injury (transplanted rice [1]; 5 DAT, 1.0 kg/ha, obs. 21 DAT): 5%
% Rice Injury (transplanted rice [1]; 5 DAT, 1.0 kg/ha, obs. 42 DAT): 0%
% Rice Injury (transplanted rice [1]; 5 DAT, 2.0 kg/ha, obs. 21 DAT): 10%
% Rice Injury (transplanted rice [1]; 5 DAT, 2.0 kg/ha, obs. 42 DAT): 0%
% Rice Injury (transplanted rice [1]; 5 DAT, .25 kg/ha, obs. 21 DAT): 0%
% Rice Injury (transplanted rice [1]; 5 DAT, .25 kg/ha, obs. 42 DAT): 0%
% Rice Injury (transplanted rice [1]; 5 DAT, .5 kg/ha, obs. 21 DAT): 0%
% Rice Injury (transplanted rice [1]; 5 DAT, .5 kg/ha, obs. 42 DAT): 0%
% Rice Injury (transplanted rice [1]; 10 DAT, 1.0 kg/ha, obs. 21 DAT): 0%
% Rice Injury (transplanted rice [1]; 10 DAT, 1.0 kg/ha, obs. 42 DAT): 0%
% Rice Injury (transplanted rice [1]; 10 DAT, 2.0 kg/ha, obs. 21 DAT): 10%
% Rice Injury (transplanted rice [1]; 10 DAT, 2.0 kg/ha, obs. 42 DAT): 0%
% Rice Injury (transplanted rice [1]; 10 DAT, .25 kg/ha, obs. 21 DAT): 0%
% Rice Injury (transplanted rice [1]; 10 DAT, .25 kg/ha, obs. 42 DAT): 0%
% Rice Injury (transplanted rice [1]; 10 DAT, .5 kg/ha, obs. 21 DAT): 0%
% Rice Injury (transplanted rice [1]; 10 DAT, .5 kg/ha, obs. 42 DAT): 0%
early season injury to rice (transplanted rice [1]; Example 1, outgrown): slight early season injury to rice was outgrown
Yield (% of H.W. Check) (transplanted rice [2]; in vivo): 97% and 105% and 107% and 81% and 91% and 100% and 73%
rice yield depression (transplanted rice [2]; in vivo): rice yield depression
Crop Injury (%) ([3]; 5 DAT, 1.0 kg/ha): 0%
Crop Injury (%) ([3]; 5 DAT, 2.0 kg/ha): 60%
Crop Injury (%) ([3]; 5 DAT, .25 kg/ha): 0%
Crop Injury (%) ([3]; 5 DAT, .5 kg/ha): 0%
Crop Injury (%) ([3]; 14 DAT, 1.0 kg/ha): 0%
Crop Injury (%) ([3]; 14 DAT, 2.0 kg/ha): 30%
Crop Injury (%) ([3]; 14 DAT, .25 kg/ha): 0%
Crop Injury (%) ([3]; 14 DAT, .5 kg/ha): 0%
weed control vs Herbicide B at 1.5 kg/ha 7 DAT ([4]; 0.25 kg/ha, 2 DAT, Ec, Ann. Cyp, Obw and average, ordinary and infant): equal to or superior
% Weed Control, Avg. ([4]; 1.0 kg/ha, 15 DAT, infant seedlings): 90%
% Weed Control, Avg. ([4]; 1.0 kg/ha, 15 DAT, ordinary seedlings): 90%
% Weed Control, Avg. ([4]; .25 kg/ha, 2 DAT, infant seedlings): 93%
% Weed Control, Avg. ([4]; .25 kg/ha, 2 DAT, ordinary seedlings): 92%
% Weed Control, Avg. ([4]; .5 kg/ha, 7 DAT, infant seedlings): 81%
% Weed Control, Avg. ([4]; .5 kg/ha, 7 DAT, ordinary seedlings): 84%
fold more active than Herbicide B ([4]; average weed control, 7 DAT): at least 3 fold
Soil Longevity [5]: 29 Weeks
residual preemergence activity longer than Herbicide B ([5]; equal rates, 5 lbs/Ac): about 50%
